Activity calls are given as the source filed them. The rule behind the calls is not given here.
Legend:
SF-539 = assay: Cytotoxicity against human SF539 cells; type: functional
MDA-MB-468 = assay: Cytotoxicity against human MDA-MB-468 cells; type: functional
CCRF-CEM = assay: Cytotoxicity against human CCRF-CEM cells; type: functional
UO-31 = assay: Cytotoxicity against human UO31 cells; type: functional
Xenopus laevis [1] = species on record: Xenopus laevis; conditions: at 10 to 100 µM
MDA-MB-435 = assay: Cytotoxicity against human MDA-MB-435 cells; type: functional
COLO 205 = assay: Cytotoxicity against human COLO205 cells; type: functional
MDA-MB-231 = assay: Cytotoxicity against human MDA-MB-231 cells; type: functional
SK-MEL-28 = assay: Cytotoxicity against human SK-MEL-28 cells; type: functional
SN12C = assay: Cytotoxicity against human SN12C cells; type: functional
A498 = assay: Cytotoxicity against human A498 cells; type: functional
OVCAR-4 = assay: Cytotoxicity against human OVCAR4 cells; type: functional
Malme-3M = assay: Cytotoxicity against human MALME-3M cells; type: functional
PC-3 = assay: Cytotoxicity against human PC3 cells; type: functional
ACHN = assay: Cytotoxicity against human ACHN cells; type: functional
K562 = assay: Cytotoxicity against human K562 cells; type: functional
NCI-H23 = assay: Cytotoxicity against human NCI-H23 cells; type: functional
MCF7 = assay: Cytotoxicity against human MCF7 cells; type: functional
HOP-92 = assay: Cytotoxicity against human HOP92 cells; type: functional
UACC-62 = assay: Cytotoxicity against human UACC62 cells; type: functional
Histone deacetylase 7 = target: T1, Histone deacetylase 7 (Homo sapiens, UniProt Q8WUI4); assay: Inhibition of HDAC7 (unknown origin)
T1 sequence (Q8WUI4 whole entry): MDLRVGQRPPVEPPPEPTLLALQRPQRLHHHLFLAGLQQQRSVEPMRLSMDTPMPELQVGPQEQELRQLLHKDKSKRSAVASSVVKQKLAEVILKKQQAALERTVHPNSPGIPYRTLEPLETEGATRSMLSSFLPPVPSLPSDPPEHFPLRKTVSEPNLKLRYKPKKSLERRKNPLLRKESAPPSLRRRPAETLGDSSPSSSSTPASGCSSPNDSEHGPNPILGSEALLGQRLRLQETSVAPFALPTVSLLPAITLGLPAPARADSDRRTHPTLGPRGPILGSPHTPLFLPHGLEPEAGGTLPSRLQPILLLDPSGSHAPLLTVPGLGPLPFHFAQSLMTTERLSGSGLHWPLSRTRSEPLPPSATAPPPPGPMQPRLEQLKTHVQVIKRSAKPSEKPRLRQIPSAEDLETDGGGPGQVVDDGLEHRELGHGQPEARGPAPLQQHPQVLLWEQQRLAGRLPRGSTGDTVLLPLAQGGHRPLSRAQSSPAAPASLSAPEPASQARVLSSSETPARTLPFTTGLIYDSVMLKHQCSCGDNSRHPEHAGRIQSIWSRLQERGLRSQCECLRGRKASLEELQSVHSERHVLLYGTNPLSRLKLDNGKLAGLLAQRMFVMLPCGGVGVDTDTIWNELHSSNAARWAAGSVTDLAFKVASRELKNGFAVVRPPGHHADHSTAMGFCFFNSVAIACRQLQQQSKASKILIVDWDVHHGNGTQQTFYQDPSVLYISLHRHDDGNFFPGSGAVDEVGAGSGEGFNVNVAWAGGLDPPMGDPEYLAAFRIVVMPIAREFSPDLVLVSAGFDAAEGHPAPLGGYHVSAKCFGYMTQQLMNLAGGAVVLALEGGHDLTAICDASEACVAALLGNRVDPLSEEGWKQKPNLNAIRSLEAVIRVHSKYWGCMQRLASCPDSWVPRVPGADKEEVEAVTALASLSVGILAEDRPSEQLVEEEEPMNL

SK-OV-3 = assay: Cytotoxicity against human SKOV3 cells; type: functional
HCT-116 = assay: Cytotoxicity against human HCT116 cells; type: functional
UACC-257 = assay: Cytotoxicity against human UACC257 cells; type: functional
Histone deacetylase 3 = Histone deacetylase 3 (Homo sapiens, UniProt O15379); assay: Inhibition of HDAC3 (unknown origin)
[2] = target: Vascular endothelial growth factor receptor 2 (Homo sapiens, UniProt P35968); assay: Inhibition of VEGFR2 (unknown origin); conditions: read-out: IC50
Histone deacetylase 4 = Histone deacetylase 4 (Homo sapiens, UniProt P56524); assay: Inhibition of HDAC4 (unknown origin)
[3] = Cytotoxicity against human NCI-ADR-RES cells; type: functional
[4] = target: Platelet-derived growth factor receptor beta (Homo sapiens, UniProt P09619); assay: Inhibition of PDGFRb (unknown origin); conditions: read-out: IC50
HCC 2998 = assay: Cytotoxicity against human HCC2998 cells; type: functional
HT-29 = assay: Cytotoxicity against human HT-29 cells; type: functional
MOLT-4 = assay: Cytotoxicity against human MOLT4 cells; type: functional
Histone deacetylase 1 = Histone deacetylase 1 (Homo sapiens, UniProt Q13547); assay: Inhibition of HDAC1 (unknown origin)
HL-60(TB) = assay: Cytotoxicity against human HL-60(TB) cells; type: functional
Histone deacetylase 8 = target: T2, Histone deacetylase 8 (Homo sapiens, UniProt Q9BY41); assay: Inhibition of HDAC8 (unknown origin); conditions: read-out: IC50
T2 sequence (Q9BY41 whole entry): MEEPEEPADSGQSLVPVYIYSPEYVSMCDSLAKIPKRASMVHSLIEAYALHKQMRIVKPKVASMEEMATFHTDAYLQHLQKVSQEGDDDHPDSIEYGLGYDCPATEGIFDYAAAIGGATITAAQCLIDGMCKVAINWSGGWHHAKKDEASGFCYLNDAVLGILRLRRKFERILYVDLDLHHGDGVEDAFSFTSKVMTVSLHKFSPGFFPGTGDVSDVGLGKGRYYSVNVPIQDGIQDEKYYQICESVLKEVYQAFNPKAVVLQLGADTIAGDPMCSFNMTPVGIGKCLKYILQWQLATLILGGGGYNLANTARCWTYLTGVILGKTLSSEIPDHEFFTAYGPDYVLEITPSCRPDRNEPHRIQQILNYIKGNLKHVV

[5] = Cytotoxicity against human Hs 578T cells; type: functional
SF-295 = assay: Cytotoxicity against human SF295 cells; type: functional
Xenopus laevis [6] = species on record: Xenopus laevis; assay: Inhibition of angiogenesis in Xenopus laevis embryo heart assessed as reduction in tube formation at 100 uM at stage 9 incubated for 72 hrs until stage 38 measured by WISH method; type: functional, organism-based
KM12 = assay: Cytotoxicity against human KM12 cells; type: functional
RPMI-8226 = assay: Cytotoxicity against human RPMI8226 cells; type: functional
TK-10 = assay: Cytotoxicity against human TK10 cells; type: functional
Histone deacetylase 9 = Histone deacetylase 9 (Homo sapiens, UniProt Q9UKV0); assay: Inhibition of HDAC9 (unknown origin)
NCI-H226 = assay: Cytotoxicity against human NCI-H226 cells; type: functional
786-0 = assay: Cytotoxicity against human 786-0 cells; type: functional
OVCAR-5 = assay: Cytotoxicity against human OVCAR5 cells; type: functional

Histone deacetylase 4, sequence (P56524 whole entry): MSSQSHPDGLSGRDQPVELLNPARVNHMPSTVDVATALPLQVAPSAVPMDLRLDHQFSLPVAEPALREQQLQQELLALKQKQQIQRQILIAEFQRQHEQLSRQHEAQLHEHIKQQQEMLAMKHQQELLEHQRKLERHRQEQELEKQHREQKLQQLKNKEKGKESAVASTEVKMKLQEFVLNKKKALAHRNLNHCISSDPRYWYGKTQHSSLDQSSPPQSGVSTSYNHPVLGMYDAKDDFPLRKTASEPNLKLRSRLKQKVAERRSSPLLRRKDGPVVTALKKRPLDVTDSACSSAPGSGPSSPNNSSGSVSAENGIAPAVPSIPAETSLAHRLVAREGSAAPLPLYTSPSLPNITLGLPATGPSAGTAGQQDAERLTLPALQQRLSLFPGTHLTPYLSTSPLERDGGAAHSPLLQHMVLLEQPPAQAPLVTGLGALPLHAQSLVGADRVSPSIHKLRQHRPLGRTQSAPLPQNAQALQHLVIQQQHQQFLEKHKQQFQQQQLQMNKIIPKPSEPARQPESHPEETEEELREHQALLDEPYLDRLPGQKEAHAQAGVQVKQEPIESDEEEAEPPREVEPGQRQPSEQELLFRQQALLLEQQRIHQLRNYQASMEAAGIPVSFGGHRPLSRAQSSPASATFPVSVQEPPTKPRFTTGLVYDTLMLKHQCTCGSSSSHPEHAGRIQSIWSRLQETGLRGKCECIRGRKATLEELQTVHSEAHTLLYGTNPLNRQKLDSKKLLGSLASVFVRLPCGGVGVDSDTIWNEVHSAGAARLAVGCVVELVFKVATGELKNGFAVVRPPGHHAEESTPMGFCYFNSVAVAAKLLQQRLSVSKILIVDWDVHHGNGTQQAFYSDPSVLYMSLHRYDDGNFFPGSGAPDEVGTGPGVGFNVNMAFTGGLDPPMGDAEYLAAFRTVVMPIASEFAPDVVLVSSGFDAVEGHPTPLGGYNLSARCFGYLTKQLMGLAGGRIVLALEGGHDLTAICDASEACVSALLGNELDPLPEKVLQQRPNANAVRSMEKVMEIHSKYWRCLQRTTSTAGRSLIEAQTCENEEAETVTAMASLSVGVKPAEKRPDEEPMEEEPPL
Histone deacetylase 1, sequence (Q13547 whole entry): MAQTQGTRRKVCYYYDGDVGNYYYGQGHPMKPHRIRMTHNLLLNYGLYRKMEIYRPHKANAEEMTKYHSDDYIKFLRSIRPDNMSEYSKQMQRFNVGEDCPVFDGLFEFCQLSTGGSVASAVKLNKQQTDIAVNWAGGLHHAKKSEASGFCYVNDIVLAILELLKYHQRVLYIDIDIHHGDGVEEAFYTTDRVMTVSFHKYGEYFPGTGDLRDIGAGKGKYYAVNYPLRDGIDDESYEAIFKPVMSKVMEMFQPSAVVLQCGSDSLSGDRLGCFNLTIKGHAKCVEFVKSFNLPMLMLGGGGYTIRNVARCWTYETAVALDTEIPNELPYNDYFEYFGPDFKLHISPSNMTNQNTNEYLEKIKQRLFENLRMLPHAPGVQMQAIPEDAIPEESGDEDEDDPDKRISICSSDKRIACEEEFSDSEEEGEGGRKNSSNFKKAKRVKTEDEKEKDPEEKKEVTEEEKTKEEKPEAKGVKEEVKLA
Vascular endothelial growth factor receptor 2, sequence (P35968 whole entry): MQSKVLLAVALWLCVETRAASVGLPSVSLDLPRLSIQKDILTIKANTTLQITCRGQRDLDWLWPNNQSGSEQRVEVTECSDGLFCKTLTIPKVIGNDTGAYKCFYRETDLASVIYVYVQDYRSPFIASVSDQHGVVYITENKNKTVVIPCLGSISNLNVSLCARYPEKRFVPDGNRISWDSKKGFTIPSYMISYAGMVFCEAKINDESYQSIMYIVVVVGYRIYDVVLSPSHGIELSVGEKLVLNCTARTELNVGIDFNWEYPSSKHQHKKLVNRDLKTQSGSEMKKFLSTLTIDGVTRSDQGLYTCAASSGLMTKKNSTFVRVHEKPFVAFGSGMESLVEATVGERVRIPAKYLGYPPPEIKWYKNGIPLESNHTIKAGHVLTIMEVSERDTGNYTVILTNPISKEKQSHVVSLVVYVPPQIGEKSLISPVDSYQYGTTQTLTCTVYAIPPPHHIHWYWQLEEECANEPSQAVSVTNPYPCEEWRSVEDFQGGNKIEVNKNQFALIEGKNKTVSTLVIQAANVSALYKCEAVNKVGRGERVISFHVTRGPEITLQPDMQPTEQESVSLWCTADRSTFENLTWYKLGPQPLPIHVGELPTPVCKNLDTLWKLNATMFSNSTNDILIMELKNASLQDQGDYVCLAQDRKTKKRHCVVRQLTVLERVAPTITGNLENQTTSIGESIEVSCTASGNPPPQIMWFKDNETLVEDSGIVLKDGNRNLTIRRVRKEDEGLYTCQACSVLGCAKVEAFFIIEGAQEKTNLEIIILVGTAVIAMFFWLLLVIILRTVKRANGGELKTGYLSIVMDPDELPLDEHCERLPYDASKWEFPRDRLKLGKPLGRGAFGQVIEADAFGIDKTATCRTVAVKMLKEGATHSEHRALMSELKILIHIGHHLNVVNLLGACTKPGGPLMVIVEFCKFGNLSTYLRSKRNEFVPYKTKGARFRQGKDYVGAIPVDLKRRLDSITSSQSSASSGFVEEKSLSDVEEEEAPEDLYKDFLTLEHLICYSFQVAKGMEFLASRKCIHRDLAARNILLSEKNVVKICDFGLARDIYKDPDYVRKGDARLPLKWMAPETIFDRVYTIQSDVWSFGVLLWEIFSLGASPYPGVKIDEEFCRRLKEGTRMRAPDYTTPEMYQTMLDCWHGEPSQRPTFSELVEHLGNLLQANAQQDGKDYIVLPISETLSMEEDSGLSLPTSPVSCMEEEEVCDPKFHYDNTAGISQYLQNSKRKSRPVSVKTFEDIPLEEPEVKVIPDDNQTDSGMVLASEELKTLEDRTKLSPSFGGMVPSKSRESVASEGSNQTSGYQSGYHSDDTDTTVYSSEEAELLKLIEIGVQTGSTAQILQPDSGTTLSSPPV
Histone deacetylase 3, sequence (O15379 whole entry): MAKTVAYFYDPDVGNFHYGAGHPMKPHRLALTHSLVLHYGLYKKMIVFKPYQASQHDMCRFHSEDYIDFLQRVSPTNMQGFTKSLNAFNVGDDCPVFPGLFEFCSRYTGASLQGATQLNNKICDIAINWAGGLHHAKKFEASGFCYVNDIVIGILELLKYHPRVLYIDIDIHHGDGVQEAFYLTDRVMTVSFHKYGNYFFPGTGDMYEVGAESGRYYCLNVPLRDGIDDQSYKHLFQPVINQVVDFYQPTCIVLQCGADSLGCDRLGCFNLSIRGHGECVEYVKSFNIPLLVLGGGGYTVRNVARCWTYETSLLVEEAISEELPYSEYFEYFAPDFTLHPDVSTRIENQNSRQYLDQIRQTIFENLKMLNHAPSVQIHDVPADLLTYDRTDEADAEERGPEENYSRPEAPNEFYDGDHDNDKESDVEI
Platelet-derived growth factor receptor beta, sequence (P09619 whole entry): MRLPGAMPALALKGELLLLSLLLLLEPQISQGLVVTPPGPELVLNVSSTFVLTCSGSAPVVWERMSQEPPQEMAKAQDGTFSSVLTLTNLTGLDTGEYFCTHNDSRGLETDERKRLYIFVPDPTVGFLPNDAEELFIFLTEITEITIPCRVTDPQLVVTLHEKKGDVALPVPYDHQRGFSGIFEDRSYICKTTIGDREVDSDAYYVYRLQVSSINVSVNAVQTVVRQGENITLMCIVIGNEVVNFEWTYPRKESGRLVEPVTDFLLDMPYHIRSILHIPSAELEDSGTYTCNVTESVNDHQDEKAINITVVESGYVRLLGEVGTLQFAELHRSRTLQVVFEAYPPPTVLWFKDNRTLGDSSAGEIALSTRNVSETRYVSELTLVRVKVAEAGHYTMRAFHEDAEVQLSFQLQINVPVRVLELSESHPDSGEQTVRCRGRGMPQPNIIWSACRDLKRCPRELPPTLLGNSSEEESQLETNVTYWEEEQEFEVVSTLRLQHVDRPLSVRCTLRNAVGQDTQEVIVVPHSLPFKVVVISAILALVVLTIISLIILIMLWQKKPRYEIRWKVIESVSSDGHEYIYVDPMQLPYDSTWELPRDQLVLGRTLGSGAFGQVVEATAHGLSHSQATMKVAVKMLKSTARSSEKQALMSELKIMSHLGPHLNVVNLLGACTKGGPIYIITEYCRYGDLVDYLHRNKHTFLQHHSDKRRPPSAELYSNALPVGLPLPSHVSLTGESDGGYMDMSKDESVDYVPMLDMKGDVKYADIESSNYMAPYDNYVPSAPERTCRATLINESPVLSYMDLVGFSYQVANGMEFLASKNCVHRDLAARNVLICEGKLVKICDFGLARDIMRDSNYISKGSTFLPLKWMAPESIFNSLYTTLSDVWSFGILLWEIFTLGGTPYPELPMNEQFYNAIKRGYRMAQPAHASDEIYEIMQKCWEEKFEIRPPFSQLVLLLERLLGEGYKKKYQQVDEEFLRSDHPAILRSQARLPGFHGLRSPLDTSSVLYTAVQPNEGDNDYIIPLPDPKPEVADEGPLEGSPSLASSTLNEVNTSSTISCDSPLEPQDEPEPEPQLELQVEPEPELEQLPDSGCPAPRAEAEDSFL

O=C(CCCCCCC(=O)Nc1ccc2c(c1)/C(=C/c1ccc[nH]1)C(=O)N2)NO
GI50 (SF-539): 605 nM
GI50 (MDA-MB-468): 194 nM
GI50 (CCRF-CEM): 102 nM
GI50 (UO-31): 775 nM
inhibition (Xenopus laevis [1]): Active
GI50 (MDA-MB-435): 341 nM
GI50 (COLO 205): 248 nM
GI50 (MDA-MB-231): 1000 nM
GI50 (SK-MEL-28): 406 nM
GI50 (SN12C): 2190 nM
GI50 (A498): 365 nM
GI50 (OVCAR-4): 1270 nM
GI50 (Malme-3M): 86 nM
GI50 (PC-3): 917 nM
GI50 (ACHN): 1150 nM
GI50 (K562): 251 nM
GI50 (NCI-H23): 1320 nM
GI50 (MCF7): 440 nM
GI50 (HOP-92): 412 nM
GI50 (UACC-62): 301 nM
IC50 (Histone deacetylase 7): Not Active
GI50 (SK-OV-3): 363 nM
GI50 (HCT-116): 238 nM
GI50 (UACC-257): 370 nM
IC50 (Histone deacetylase 3): 0.669 nM
IC50 [2]: 237 nM
IC50 (Histone deacetylase 4): Not Active
GI50 [3]: 4000 nM
IC50 [4]: 185 nM
GI50 (HCC 2998): 1640 nM
GI50 (HT-29): 612 nM
GI50 (MOLT-4): 302 nM
IC50 (Histone deacetylase 1): 0.00687 nM
GI50 (HL-60(TB)): 477 nM
IC50 (Histone deacetylase 8): 60.2 nM
GI50 [5]: 1020 nM
GI50 (SF-295): 1310 nM
Activity (Xenopus laevis [6]): inactive
GI50 (KM12): 960 nM
GI50 (RPMI-8226): 2920 nM
GI50 (TK-10): 795 nM
IC50 (Histone deacetylase 9): Not Active
GI50 (NCI-H226): 2320 nM
GI50 (786-0): 2400 nM
GI50 (OVCAR-5): 1120 nM
